Measured values published in US20260000697A1, “COMBINATION FORMULATION OF CEDAZURIDINE” (Otsuka Pharmaceutical Co., Ltd., priority 2022, published 2026).
Values joined by “and” are separate entries in the source; they are usually repeats but may differ in a detail not shown here. Identical values can stand only once. Like-named read-outs stand apart in the source and are kept apart here.

Key:
[1] = clinical
Protocol: Blood samples were collected pre-dose, and 0.5, 1, 1.5, 2, 2.5, 3, 3.5, 4, 5, 7, 9 and 24 hours after dosing.

[2] = for release at buffer stage from enteric capsule: 50 mM phosphate buffer pH 6.8; for release at buffer stage from enteric capsule / release in acid stage from enteric capsule: Capsule 1 and Capsule 2; for release in acid stage from enteric capsule: 0.1 N HCl, 2 hours
[3] = tested on: fetal hemoglobin levels (Hb F); conditions: orally administered (8 mg/kg), repeatedly phlebotomized baboon (PCV less than 20%); cited from earlier work
[4] = 80 mg oral dose, 3 subjects, one value per subject, post-dose; cited from earlier work
[5] = human, blood, subcutaneous, 60 mg

AUC(0-t) [1, 5] | Cmax [1, 5] | Tmax [1, 5] | release at buffer stage from enteric capsule [2] | release in acid stage from enteric capsule [2] | stability in dissolution medium ([2]; pH 6.8) | Compound | elevation in fetal hemoglobin levels (Hb F) [3] | Tmax [4] | effect of co-administration on azacitidine PK ([1]; 60 mg oral delayed release azacitidine with vs without 60 mg cedazuridine)
761 ng·h/mL | 384 ng/mL | 0.6 h | – | – | – | Nc1ncn([C@@H]2O[C@H](CO)[C@@H](O)[C@H]2O)c(=O)n1 [Group 1 (azacitidine, SQ), azacitidine] | – | – | –
– | – | – | rapidly released | slowly released | – | Nc1ncn([C@@H]2O[C@H](CO)C(O)[C@@H]2O)c(=O)n1 (some centres unmarked) [azacitidine] | no elevation | 1.5 h and 2.0 h and 1.0 h | –
– | – | – | rapidly released | slowly released | degradation is minimal | O=C1N[C@H](O)CCN1[C@@H]1O[C@H](CO)[C@@H](O)C1(F)F [cedazuridine] | – | – | increased Tmax, Cmax and AUC for azacitidine
